Values quoted from earlier work as cited in patent publication US4944949A, “Pharmaceutical delivery systems” (priority 1986, dated 1990).
Where two headings read alike, the source gives them in different places.

Assays:
[1] = for faecal blood loss with oral prostaglandin E2: oral PGE2 1 mg three or four times daily given with the drug
[2] = in vivo
[3] = for most frequent adverse effects: in vivo
[4] = test system: plasma proteins
[5] = parts of drug dissolving in 10,000 parts of water

Compound | absorption [2] | solubility in organic solvents | most frequent adverse effects [3] | other results
CC(=O)Oc1ccccc1C(=O)O [Aspirin] |  |  |  | faecal blood loss with oral prostaglandin E2 [1]: reduced to control levels
O=C(O)Cc1ccccc1Nc1c(Cl)cccc1Cl [Diclofenac] | fairly well absorbed | soluble in some organic solvents |  | Gastrointestinal disturbances / side effects reported ([3]; % of cases): about 7%; solubility in water (water): poorly soluble in water
O=C(O)c1ccccc1Nc1cccc(C(F)(F)F)c1 [Flufenamic acid] | well absorbed | reasonably soluble in various organic solvents | gastrointestinal disturbances | bound to plasma proteins [4]: extensively bound to plasma proteins; solubility in water [5]: less than 1 part in 10,000 parts of water
CC(C(=O)O)c1ccc(-c2ccccc2)c(F)c1 (centres unmarked) [Flurbiprofen] | readily absorbed | readily soluble in most organic solvents |  | bound to plasma proteins ([4]; plasma): approximately 99%
CC(C)Cc1ccc(C(C)C(=O)O)cc1 (centres unmarked) [Ibuprofen, ibuprofen] | well absorbed | fairly soluble in simple organic solvents | gastrointestinal | solubility in water [5]: less than 1 part in 10,000 parts of water; solubility in water (water): poorly soluble in water
COc1ccc2c(c1)c(CC(=O)O)c(C)n2C(=O)c1ccc(Cl)cc1 [Indomethacin] | readily absorbed | more soluble in simple organic solvents | gastrointestinal problems, headache and dizziness | parts of water in which drug is soluble (parts of water per part of drug): more than 10,000 parts of water; increase in faecal blood loss ([1]; compared with controls): ~3 fold; faecal blood loss with oral prostaglandin E2 [1]: reduced to control levels
CC(C(=O)O)c1cccc(C(=O)c2ccccc2)c1 (centres unmarked) [Ketoprofen] |  |  | gastrointestinal | 
COc1ccc2cc([C@H](C)C(=O)O)ccc2c1 [Naproxen] |  |  | gastrointestinal | 
CCCCC1C(=O)N(c2ccccc2)N(c2ccccc2)C1=O [Phenylbutazone] | readily absorbed |  | nausea, vomiting and epigastric distress | 
CN1C(C(=O)Nc2ccccn2)=C(O)c2ccccc2S1(=O)=O [Piroxicam] | well absorbed | soluble in some organic solvents | high incidence of severe gastrointestinal side effects | bound to plasma proteins ([4]; plasma): 99%; solubility in water (water): poorly soluble in water
CC1=C(CC(=O)O)c2cc(F)ccc2/C1=C\c1ccc([S+](C)[O-])cc1 (centres unmarked) [Sulindac] | incompletely absorbed from the gastrointestinal tract |  | gastrointestinal, headache and dizziness | 
